Source: US20050060764A1, “Mouse model for bone metabolism” (priority 2003, published 2005)
Strand notation (5' to 3'): a small letter for the sugar, then the base; units joined by * are phosphorothioate-linked, units joined directly phosphodiester-linked; [ ] holds rarer units or linkages, { } end groups; capitals alone tell only the bases. e = 2'-O-(2-methoxyethyl) (MOE); [5mC] = 5-methylcytosine; d = 2'-deoxy (DNA)

tested on: mouse RANKL mRNA; test: Antisense inhibition of mouse RANKL mRNA levels in C2C12 cells, quantitative real-time PCR (Table 2); format: cell-based; set-up: concentration or dose not given beside the values; conditions: averages from three experiments
Protocol: Cells were seeded into 24-well plates (Falcon-353047 at a density of ˜10,000 cells/cm^2 for use in antisense oligonucleotide transfection.
Cells are treated and data are obtained in triplicate. […] Cells were harvested 16-24 hours after oligonucleotide treatment.
PCR reagents were obtained from Invitrogen Corporation, (Carlsbad, Calif.).
Probes and primers to mouse RANKL were designed to hybridize to a mouse RANKL sequence, using published sequence information (GenBank accession number AF013170.1, incorporated herein as SEQ ID NO:ll). For mouse RANKL the PCR primers were: • forward primer: […] (SEQ ID NO:12) • reverse primer: […] (SEQ ID NO: 13) and • the PCR probe was: FAM-[…]-TAMRA (SEQ ID NO: 14) where FAM is the fluorescent reporter dye and TAMRA is the quencher dye. For mouse GAPDH the PCR primers were: • forward primer: […](SEQ ID NO:15) • reverse primer: […](SEQ ID NO:16) and the • PCR probe was: 5′ JOE-[…]-TAMRA 3′ (SEQ ID NO: 17) where JOE is the fluorescent reporter dye and TAMRA is the quencher dye.
In accordance with the present invention, a second series of antisense compounds was designed to target different regions of the mouse RANKL RNA, using published sequences (GenBank accession number AF013170.1, incorporated herein as SEQ ID NO: 11). […] All cytidine residues are 5-methylcytidines. […] If present “N.D.” indicates “no data”.

| Substance | % INHIB (inhibition of mouse RANKL mRNA levels) |
| --- | --- |
| ggattttgatgctggtttta (antisense eG*eG*eA*eT*eT*dT*dT*dG*dA*dT*dG*d[5mC]*dT*dG*dG*eT*eT*eT*eT*eA) [ISIS 180809, 2′-MOE gapmer targeted to mouse and rat RANKL] | at least 40% |
| agcaaatgttggcgtacagg (antisense eA*eG*e[5mC]*eA*eA*dA*dT*dG*dT*dT*dG*dG*d[5mC]*dG*dT*eA*e[5mC]*eA*eG*eG) [ISIS 180807, 2′-MOE gapmer targeted to mouse and rat RANKL] | at least 40% |
| cgggaggeggcgggtggcgg (antisense e[5mC]*eG*eG*eG*eA*dG*dG*d[5mC]*dG*dG*d[5mC]*dG*dG*dG*dT*eG*eG*e[5mC]*eG*eG) [ISIS 180799, 2′-MOE gapmer targeted to mouse RANKL] | at least 40% |
| 180804 (antisense e[5mC]*eA*eG*eT*eT*d[5mC]*d[5mC]*dT*dT*d[5mC]*dT*dG*d[5mC]*dA*d[5mC]*eG*eG*e[5mC]*e[5mC]*e[5mC]) [compound 180804] | 44% |
| 180830 (antisense eT*eG*eA*eA*eA*dG*dG*d[5mC]*dA*d[5mC]*d[5mC]*dT*dG*dG*dT*eG*eA*e[5mC]*e[5mC]*eA) [compound 180830] | 5% |
| 180799 (antisense e[5mC]*eG*eG*eG*eA*dG*dG*d[5mC]*dG*dG*d[5mC]*dG*dG*dG*dT*eG*eG*e[5mC]*eG*eG) [compound 180799] | 52% |
| ggcttgcctcgctgggccac (antisense eG*eG*e[5mC]*eT*eT*dG*d[5mC]*d[5mC]*dT*d[5mC]*dG*d[5mC]*dT*dG*dG*eG*e[5mC]*e[5mC]*eA*e[5mC]) [ISIS 180805, 2′-MOE gapmer targeted to mouse RANKL] | at least 40% |
| 180797 (antisense eT*e[5mC]*eT*e[5mC]*eG*dG*d[5mC]*dT*dG*dG*d[5mC]*d[5mC]*d[5mC]*dG*dG*e[5mC]*eG*e[5mC]*eA*eT) [compound 180797] | 60% |
| 180811 (antisense eA*eT*eG*e[5mC]*eT*dA*dA*dT*dT*dT*d[5mC]*dT*dT*d[5mC]*dA*e[5mC]*e[5mC]*eA*eG*e[5mC]) [compound 180811] | 67% |
| 180792 (antisense eT*eG*e[5mC]*eT*e[5mC]*d[5mC]*dG*d[5mC]*dG*dA*dT*d[5mC]*dG*dT*dT*e[5mC]*eT*e[5mC]*eT*e[5mC]) [compound 180792] | 77% |
| 180794 (antisense e[5mC]*e[5mC]*eG*eG*e[5mC]*dG*d[5mC]*dA*dT*dG*dG*d[5mC]*dG*d[5mC]*dG*eG*e[5mC]*eG*e[5mC]*e[5mC]) [compound 180794] | 0% |
| 180803 (antisense eT*e[5mC]*eT*eT*e[5mC]*dA*d[5mC]*dT*d[5mC]*dT*d[5mC]*d[5mC]*dA*dG*dA*eG*eT*e[5mC]*eG*eA) [compound 180803] | 55% |
| tcagtggcacatgtccaggg (antisense eT*e[5mC]*eA*eG*eT*dG*dG*d[5mC]*dA*d[5mC]*dA*dT*dG*dT*d[5mC]*e[5mC]*eA*eG*eG*eG) [ISIS 180818, 2′-MOE gapmer targeted to mouse RANKL] | at least 40% |
| cctgacagatttcagtagcc (antisense e[5mC]*e[5mC]*eT*eG*eA*d[5mC]*dA*dG*dA*dT*dT*dT*d[5mC]*dA*dG*eT*eA*eG*e[5mC]*e[5mC]) [ISIS 180831, 2′-MOE gapmer targeted to mouse RANKL] | at least 40% |
| tcttcactctccagagtcga (antisense eT*e[5mC]*eT*eT*e[5mC]*dA*d[5mC]*dT*d[5mC]*dT*d[5mC]*d[5mC]*dA*dG*dA*eG*eT*e[5mC]*eG*eA) [ISIS 180803, 2′-MOE gapmer targeted to mouse RANKL] | at least 40% |
| 180791 (antisense e[5mC]*e[5mC]*eG*e[5mC]*e[5mC]*dG*dA*dG*d[5mC]*dA*dG*dA*d[5mC]*dT*d[5mC]*e[5mC]*eG*e[5mC]*e[5mC]*eA) [compound 180791] | 44% |

| Substance | % INHIB (inhibition of mouse RANKL mRNA levels) |
| --- | --- |
| 180802 (antisense eG*e[5mC]*eT*e[5mC]*eG*dA*dA*dA*dG*dT*dA*d[5mC]*dA*dG*dG*eA*eA*e[5mC]*eA*eG) [compound 180802] | 79% |
| agcagactccgccacggccc (antisense eA*eG*e[5mC]*eA*eG*dA*d[5mC]*dT*d[5mC]*d[5mC]*dG*d[5mC]*d[5mC]*dA*d[5mC]*eG*eG*e[5mC]*e[5mC]*e[5mC]) [ISIS 180790, 2′-MOE gapmer targeted to mouse RANKL] | at least 40% |
| 180832 (antisense eG*eG*eA*eA*eA*dA*dA*dA*dA*dA*dG*dA*dA*dA*d[5mC]*e[5mC]*eA*eA*eA*eA) [compound 180832] | 0% |
| 180790 (antisense eA*eG*e[5mC]*eA*eG*dA*d[5mC]*dT*d[5mC]*d[5mC]*dG*d[5mC]*d[5mC]*dA*d[5mC]*eG*eG*e[5mC]*e[5mC]*e[5mC]) [compound 180790] | 59% |
| cttatttgcaggtcccagcg (antisense e[5mC]*eT*eT*eA*eT*dT*dT*dG*d[5mC]*dA*dG*dG*dT*d[5mC]*d[5mC]*e[5mC]*eA*eG*e[5mC]*eG) [ISIS 180820, 2′-MOE gapmer targeted to mouse RANKL] | at least 40% |
| 180808 (antisense eA*eG*e[5mC]*eT*eG*dA*dA*dG*dA*dT*dA*dG*dT*d[5mC]*dT*eG*eT*eA*eG*eG) [compound 180808] | 74% |
| 180798 (antisense e[5mC]*e[5mC]*eT*eT*e[5mC]*dG*dT*dG*dT*dG*dG*dG*dA*d[5mC]*dG*e[5mC]*e[5mC]*eG*eG*eG) [compound 180798] | 34% |
| 180821 (antisense e[5mC]*eA*eT*eT*eA*d[5mC]*dA*d[5mC]*d[5mC]*dT*dG*dA*dA*dA*dT*eA*eT*eA*eA*e[5mC]) [compound 180821] | 15% |
| 180829 (antisense eA*eA*eG*eG*e[5mC]*dA*d[5mC]*d[5mC]*dT*dG*dG*dT*dG*dA*d[5mC]*e[5mC]*eA*eA*e[5mC]*eA) [compound 180829] | 23% |
| tgctccgcgatcgttctctc (antisense eT*eG*e[5mC]*eT*e[5mC]*d[5mC]*dG*d[5mC]*dG*dA*dT*d[5mC]*dG*dT*dT*e[5mC]*eT*e[5mC]*eT*e[5mC]) [ISIS 180792, 2′-MOE gapmer targeted to mouse RANKL] | at least 40% |
| tctcggctggcccggcgcat (antisense eT*e[5mC]*eT*e[5mC]*eG*dG*d[5mC]*dT*dG*dG*d[5mC]*d[5mC]*d[5mC]*dG*dG*e[5mC]*eG*e[5mC]*eA*eT) [ISIS 180797, 2′-MOE gapmer targeted to mouse RANKL] | at least 40% |
| 180796 (antisense eT*e[5mC]*eG*eG*e[5mC]*dT*dG*dG*d[5mC]*d[5mC]*d[5mC]*dG*dG*d[5mC]*dG*e[5mC]*eA*eT*eG*eG) [compound 180796] | 67% |
| tttattttgcttgcatagtt (antisense eT*eT*eT*eA*eT*dT*dT*dT*dG*d[5mC]*dT*dT*dG*d[5mC]*dA*eT*eA*eG*eT*eT) [ISIS 180828, 2′-MOE gapmer targeted to mouse RANKL] | at least 40% |
| atgctaatttcttcaccagc (antisense eA*eT*eG*e[5mC]*eT*dA*dA*dT*dT*dT*d[5mC]*dT*dT*d[5mC]*dA*e[5mC]*e[5mC]*eA*eG*e[5mC]) [ISIS 180811, 2′-MOE gapmer targeted to mouse RANKL] | at least 40% |
| tcagaattgcccgaccagtt (antisense eT*e[5mC]*eA*eG*eA*dA*dT*dT*dG*d[5mC]*d[5mC]*d[5mC]*dG*dA*d[5mC]*e[5mC]*eA*eG*eT*eT) [ISIS 180810, 2′-MOE gapmer targeted to mouse RANKL] | at least 40% |

tested on: rat RANKL mRNA; test: Antisense inhibition of rat RANKL mRNA levels in UMR-106 cells, quantitative real-time PCR (Table 3); format: cell-based; set-up: concentration or dose not given beside the values; conditions: averages from three experiments
Summary of the method: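 UMR-106 cells transfected with antisense oligonucleotides (5-methylcytidine throughout) in triplicate, harvested 16-24 h after treatment. RANKL mRNA quantified by real-time RT-PCR with a FAM/TAMRA probe, using rat GAPDH (JOE/TAMRA probe) as the reference.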

| Substance | % INHIB (inhibition of rat RANKL mRNA levels) |
| --- | --- |
| ggattttgatgctggtttta (antisense eG*eG*eA*eT*eT*dT*dT*dG*dA*dT*dG*d[5mC]*dT*dG*dG*eT*eT*eT*eT*eA) [ISIS 180809, 2′-MOE gapmer targeted to mouse and rat RANKL] | at least 40% |
| agcaaatgttggcgtacagg (antisense eA*eG*e[5mC]*eA*eA*dA*dT*dG*dT*dT*dG*dG*d[5mC]*dG*dT*eA*e[5mC]*eA*eG*eG) [ISIS 180807, 2′-MOE gapmer targeted to mouse and rat RANKL] | at least 40% |
| 180802 (antisense eG*e[5mC]*eT*e[5mC]*eG*dA*dA*dA*dG*dT*dA*d[5mC]*dA*dG*dG*eA*eA*e[5mC]*eA*eG) [compound 180802] | 40% |
